The structures appear in SMILES notation.

Holding throughout (format): in vivo
Experiment [1] concerns Alopecurus myosuroides (ALOMY). The experiment is described as follows: Pre-emergence herbicidal activity, glasshouse pot test. To be noted: evaluated after 13 days; for pest or weed control at 250 g/ha: Alopecurus myosuroides, 312 h, Rate 250 g/ha, pre-emergence spray, read-out: Pre-emergence activity ALOMY (100=total damage to plant; 0=no damage to plant). Summed up:
(§1)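 Glasshouse pots, standard soil; spray at day 1 (pre) or day 8 (post) after sowing; a.i. in acetone/water 50:50 + 0.5% Tween 20, diluted aqueous. 24/16° C, 14 h light, 65% RH. Visual damage at 13 days: 0 = none, 100 = total.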

Experiment [2] relates to Avena fatua (AVEFA). Described as above. Particulars: evaluated after 13 days; for pest or weed control at 250 g/ha: Avena fatua, 312 h, Rate 250 g/ha, pre-emergence spray, read-out: Pre-emergence activity AVEFA (100=total damage to plant; 0=no damage to plant). Summed up:
as §1

Experiment [3] has as its system Lolium perenne (LOLPE). The experiment is described as above. Particulars: evaluated after 13 days; for pest or weed control at 250 g/ha: Lolium perenne, 312 h, Rate 250 g/ha, pre-emergence spray, read-out: Pre-emergence activity LOLPE (100=total damage to plant; 0=no damage to plant). The procedure, abridged:
as §1

In experiment [4] the test system is Echinochloa crus-galli (ECHCG). Described as above. Particulars: evaluated after 13 days; for pest or weed control at 250 g/ha: Echinochloa crus-galli, 312 h, Rate 250 g/ha, pre-emergence spray, read-out: Pre-emergence activity ECHCG (100=total damage to plant; 0=no damage to plant). Summed up: as §1
Experiment [5] has as its system Alopecurus myosuroides (ALOMY). The experiment is described as follows: Post-emergence herbicidal activity, glasshouse pot test. To be noted: rate 250 g/ha, evaluated after 13 days; for pest or weed control at 250 g/ha: Alopecurus myosuroides, 312 h, glasshouse, read-out: Post-emergence activity ALOMY (100=total damage to plant; 0=no damage to plant). Summed up: as §1

The test system of experiment [6] is Avena fatua (AVEFA). The experiment is described as above. Particulars: rate 250 g/ha, evaluated after 13 days; for pest or weed control at 250 g/ha: Avena fatua, 312 h, glasshouse, read-out: Post-emergence activity AVEFA (100=total damage to plant; 0=no damage to plant). The procedure, abridged:
as §1

For experiment [7], the system named is Lolium perenne (LOLPE). The experiment is described as above. To be noted: rate 250 g/ha, evaluated after 13 days; for pest or weed control at 250 g/ha: Lolium perenne, 312 h, glasshouse, read-out: Post-emergence activity LOLPE (100=total damage to plant; 0=no damage to plant). Summed up: as §1
For experiment [8], the system named is Echinochloa crus-galli (ECHCG). Described as above. Particulars: rate 250 g/ha, evaluated after 13 days; for pest or weed control at 250 g/ha: Echinochloa crus-galli, 312 h, glasshouse, read-out: Post-emergence activity ECHCG (100=total damage to plant; 0=no damage to plant). The procedure, abridged:
as §1

Take `CCc1ccc(Oc2ccc(C#N)c(F)c2)cc1C1=C(O)C(C)(C)OC(C)(C)C1=O` [Example A-116]: the pest or weed control at 250 g/ha in experiment [1] came out at 0%; in the experiment with Avena fatua (AVEFA) [2], 0%; in the experiment with Lolium perenne (LOLPE) [3], 20%; in experiment [4], 20%; in experiment [5] it was 80%; in the experiment on Avena fatua (AVEFA) [6], 30%. For the same compound, the values for the pest or weed control at 250 g/ha (in the experiment on Lolium perenne (LOLPE) [7]; in experiment [8]) were 40% and 100%, respectively.

On to `CCc1ccc(Oc2nc(OC)cc(OC)n2)cc1C1=C(O)C(C)(C)OC(C)(C)C1=O` [Example A-127], for which the pest or weed control at 250 g/ha (in experiment [1]; with Avena fatua (AVEFA) [2]; with Lolium perenne (LOLPE) [3]; in experiment [4]; in experiment [5]; in the experiment with Avena fatua (AVEFA) [6]) was 0% each time. In addition, the pest or weed control at 250 g/ha in the experiment on Lolium perenne (LOLPE) [7] is 10%; in experiment [8], 30%.

For the compound `CCc1ccc(Oc2ccc(C#N)c(C(F)(F)F)c2)cc1C1=C(O)C(C)(C)OC(C)(C)C1=O` [Example A-76], the pest or weed control at 250 g/ha in experiment [1] was determined as 70%; in the experiment on Avena fatua (AVEFA) [2], 80%; with Lolium perenne (LOLPE) [3], 60%; in experiment [4] it was 100%; in experiment [5] it was 80%; with Avena fatua (AVEFA) [6], 70%. Besides, the figures for the pest or weed control at 250 g/ha (in the experiment on Lolium perenne (LOLPE) [7]; in experiment [8]) were 70% and 100%, respectively.

In the case of `CCc1ccc(Oc2ccc(C#N)cc2)cc1C1=C(O)C(C)(C)OC(C)(C)C1=O` [Example A-79], the pest or weed control at 250 g/ha in experiment [1] was found to be 80%; in the experiment with Avena fatua (AVEFA) [2], 80%; in the experiment on Lolium perenne (LOLPE) [3], 90%; in experiment [4] it was 100%; in experiment [5] it was 100%; in the experiment with Avena fatua (AVEFA) [6], 60%. In addition, the pest or weed control at 250 g/ha came to 80% in the experiment on Lolium perenne (LOLPE) [7] and 100% in experiment [8].

As for `CCc1ccc(Oc2ccc(C(F)(F)F)c(C#N)c2)cc1C1=C(O)[C@H]2CC[C@H](C2)C1=O` [Example A-340], the pest or weed control at 250 g/ha in experiment [1] was determined as 80%; with Avena fatua (AVEFA) [2], 50%; with Lolium perenne (LOLPE) [3], 70%; in experiment [4], 100%; in experiment [5], 60%; in the experiment on Avena fatua (AVEFA) [6], 80%. The figures for the pest or weed control at 250 g/ha (in the experiment with Lolium perenne (LOLPE) [7]; in experiment [8]) were 70% and 100%, respectively.

As for `CCc1ccc(Oc2ccc3cc(Br)ccc3n2)cc1C1=C(O)C(C)(C)OC(C)(C)C1=O` [Example A-256], the pest or weed control at 250 g/ha was 50% in experiment [1]; 20% in the experiment on Avena fatua (AVEFA) [2]; 80% in the experiment on Lolium perenne (LOLPE) [3]; 80% in experiment [4]; 90% in experiment [5]; 80% with Avena fatua (AVEFA) [6]. In addition, the pest or weed control at 250 g/ha (with Lolium perenne (LOLPE) [7]; in experiment [8]) was 90% throughout.

`CCc1ccc(Oc2ncc(Cl)cc2F)cc1C1=C(O)CC2(CCOCC2)CC1=O` [Example A-274]: the pest or weed control at 250 g/ha (in experiment [1]; in the experiment on Avena fatua (AVEFA) [2]; in the experiment with Lolium perenne (LOLPE) [3]; in experiment [4]; in experiment [5]; with Avena fatua (AVEFA) [6]) was 100% throughout. For the same compound, the pest or weed control at 250 g/ha (in the experiment with Lolium perenne (LOLPE) [7]; in experiment [8]) was 100% throughout.

On to `CCc1ccc(Oc2ncc(Cl)cn2)cc1C1=C(O)CC2(CCOCC2)CC1=O` [Example A-263], for which the pest or weed control at 250 g/ha in experiment [1] was 60%; in the experiment with Avena fatua (AVEFA) [2], 20%; in the experiment with Lolium perenne (LOLPE) [3], 50%; in experiment [4], 100%; in experiment [5], 100%; in the experiment on Avena fatua (AVEFA) [6], 90%. Further, the pest or weed control at 250 g/ha with Lolium perenne (LOLPE) [7] came out at 60%; in experiment [8], 100%.

On to `CCc1ccc(Oc2nc3ccc(OC)cc3s2)cc1C1=C(O)CC(C)(C)CC1=O` [Example A-300], for which the pest or weed control at 250 g/ha in experiment [1] was 80%; with Avena fatua (AVEFA) [2], 0%; with Lolium perenne (LOLPE) [3], 100%; in experiment [4], 100%; in experiment [5], 80%; in the experiment with Avena fatua (AVEFA) [6] it was 70%. The results for the pest or weed control at 250 g/ha (in the experiment on Lolium perenne (LOLPE) [7]; in experiment [8]) were 60% and 100%, respectively.

Consider `CCc1ccc(Oc2ccc(C(F)(F)F)cc2C#N)cc1C1=C(O)C(C)(C)OC(C)(C)C1=O` [Example A-100], for which the pest or weed control at 250 g/ha came out at 40% in experiment [1]; 40% in the experiment with Avena fatua (AVEFA) [2]; 80% in the experiment on Lolium perenne (LOLPE) [3]; 100% in experiment [4]; 80% in experiment [5]; 80% with Avena fatua (AVEFA) [6]. The pest or weed control at 250 g/ha in the experiment with Lolium perenne (LOLPE) [7] stood at 40%; in experiment [8] it was 90%.

For the compound `CCc1ccc(Oc2nc3ccc(Cl)cc3s2)cc1C1=C(O)C(C)(C)OC(C)(C)C1=O` [Example A-106], the pest or weed control at 250 g/ha in experiment [1] amounted to 60%; in the experiment on Avena fatua (AVEFA) [2] it was 20%; with Lolium perenne (LOLPE) [3], 100%; in experiment [4], 90%; in experiment [5], 90%; in the experiment on Avena fatua (AVEFA) [6], 50%. Moreover, the pest or weed control at 250 g/ha amounted to 80% in the experiment on Lolium perenne (LOLPE) [7] and 90% in experiment [8].

For `CCc1ccc(Oc2nccc(C(F)(F)F)n2)cc1C1=C(O)C(C)(C)OC(C)(C)C1=O` [Example A-108], the pest or weed control at 250 g/ha worked out at 40% in experiment [1]; 40% in the experiment with Avena fatua (AVEFA) [2]; 70% in the experiment on Lolium perenne (LOLPE) [3]; 80% in experiment [4]; 60% in experiment [5]; 70% in the experiment on Avena fatua (AVEFA) [6]. Further, the pest or weed control at 250 g/ha is 50% with Lolium perenne (LOLPE) [7] and 100% in experiment [8].

On to `CCc1ccc(Oc2ncc(Br)cn2)cc1C1=C(O)CC(C)(C)CC1=O` [Example A-297], for which the pest or weed control at 250 g/ha was determined as 70% in experiment [1]; 50% in the experiment on Avena fatua (AVEFA) [2]; 100% in the experiment on Lolium perenne (LOLPE) [3]; 100% in experiment [4]; 100% in experiment [5]; 100% with Avena fatua (AVEFA) [6]. The pest or weed control at 250 g/ha (in the experiment with Lolium perenne (LOLPE) [7]; in experiment [8]) was 100% throughout.

Regarding `CCc1ccc(Oc2ncc(Cl)cc2Cl)cc1C1=C(O)CC(C)(C)CC1=O` [Example A-84], the pest or weed control at 250 g/ha came to 70% in experiment [1]; 60% in the experiment on Avena fatua (AVEFA) [2]; 100% with Lolium perenne (LOLPE) [3]; 100% in experiment [4]; 100% in experiment [5]; 50% in the experiment on Avena fatua (AVEFA) [6]. Besides, the pest or weed control at 250 g/ha was found to be 90% with Lolium perenne (LOLPE) [7] and 100% in experiment [8].

With `CCc1ccc(Oc2ccc(C#N)cc2F)cc1C1=C(OC(=O)OC)C(C)(C)OC(C)(C)C1=O` [Example P-4], the “ALOMY damage to plant (100=total damage to plant; 0=no damage to plant)” value was found to be 80 in experiment [1] (pre-emergence, rate 250 g/ha) and 90 in experiment [5]. The “AVEFA damage to plant (100=total damage to plant; 0=no damage to plant)” value in the experiment on Avena fatua (AVEFA) [2] (pre-emergence, rate 250 g/ha) was 60; with Avena fatua (AVEFA) [6], 60. Besides, the “LOLPE damage to plant (100=total damage to plant; 0=no damage to plant)” value is listed as 100 in the experiment on Lolium perenne (LOLPE) [3] (pre-emergence, rate 250 g/ha) and 90 in the experiment with Lolium perenne (LOLPE) [7]. The “ECHCG damage to plant (100=total damage to plant; 0=no damage to plant)” value in experiment [4] (pre-emergence, rate 250 g/ha) turned out to be 100; in experiment [8], 100.

On to `CCc1ccc(Oc2ccc(C(F)(F)F)cc2[N+](=O)[O-])cc1C1=C(O)[C@H]2CC[C@H](C2)C1=O` [Example A-344], for which the pest or weed control at 250 g/ha was 40% in experiment [1]; 30% in the experiment with Avena fatua (AVEFA) [2]; 80% in the experiment on Lolium perenne (LOLPE) [3]; 100% in experiment [4]; 60% in experiment [5]; 90% with Avena fatua (AVEFA) [6]. Also, the pest or weed control at 250 g/ha in the experiment with Lolium perenne (LOLPE) [7] was determined as 70%; in experiment [8], 90%.

For the origin of these results see patent US8865623B2, “Herbicidally active cyclic diones and derivatives thereof, processes for their preparation, compositions, and method of controlling weeds” (Syngenta Limited, priority 2009, dated 2014).
